From article PMC10892818, “An Antiherpesviral Host-Directed Strategy Based on CDK7 Covalently Binding Drugs: Target-Selective, Picomolar-Dose, Cross-Virus Reactivity” (Pharmaceutics, 2024)
Like-named read-outs stand apart in the source and are kept apart here.

Experiments:
HCMV UL97-C480F [1] = assay: HCMV reporter-based antiviral assay, drug-resistant mutant; type: cell-based, human cytomegalovirus; conditions: Human betaherpesvirus 5, read-out: Measured EC50 ref. drugs UL97-C480F
Method: (§1) For the infection experiments, stocks of the following recombinant, reporter protein-expressing viruses (GFP or YFP (i.e., green or yellow fluorescent protein, respectively)) were propagated (in permissive cells), determined in their infectious titers performing the respective reporter assays, stored by aliquots at −80 °C, and used for the assessment of antiviral drug activities: human cytomegalovirus HCMV AD169-GFP (HFFs); murine cytomegalovirus MCMV C3X-GFP (MEFs); guinea pig cytomegalovirus GPCMV v403-GFP (GPEFs); human herpesvirus type 6A HHV-6A U1102-GFP (J-Jhan); herpes simplex virus type 1 HSV-1 166v VP22-GFP (HFFs); varicella zoster virus VZV Oka-GFP (HFFs); Epstein-Barr virus EBV Akata-GFP (Akata-BX1-GFP carrier cells; kindly provided by Lindsey Hutt-Fletcher and Rona Scott, Dept. Microbiol. Immunol., LSUHSC Univ., Shreveport, LA, USA); and Kaposi’s sarcoma-associated herpesvirus KSHV rKSHV.219-GFP/RFP (in iSLK.219 carrier cells).
(§2) For HCMV AD169-GFP infection, the replication assay was based on a seeding of 225,000 HFFs or 13,500 HFFs in 12 well or 96 well plates, respectively, which were then inoculated with HCMV AD169-GFP [55] at an MOI of 0.25 GFP-FU/mL/7 d for a 90 min period of inoculum–cell adsorption, followed by a medium refreshment including the immediate addition of antiviral compounds. At 7 d p.i., the infected HFFs were either directly fixed with 10% formalin for 20 min at 4 °C (when used for infection in the 96 well format) or lysed and transferred to 96 well plates (when used for infection in the 12 well format) so that the reporter of viral replication could be quantified by GFP fluorometry using a Perkin Elmer Victor X4 Multimode Plate Reader (Perkin Elmer, Waltham, MA, USA).
(§3) Due to the fact that the HCMV-encoded protein kinase pUL97 represents a functional and structural ortholog of the host CDKs (vCDK/pUL97), the viral mutants of ORF-UL97 were assessed for sensitivity against CDK7 inhibitors.

HCMV UL97-C592G [2] = assay: as above; type: cell-based, human cytomegalovirus; conditions: Human betaherpesvirus 5, read-out: Measured EC50 ref. drugs UL97-C592G
Method: as §1, §2, §3

HCMV UL97-C603W [3] = assay: as above; type: cell-based, human cytomegalovirus; conditions: Human betaherpesvirus 5, read-out: Measured EC50 ref. drugs UL97-C603W
Method: as §1, §2, §3

HCMV UL97-F342S [4] = assay: as above; type: cell-based, human cytomegalovirus; conditions: Human betaherpesvirus 5, read-out: Measured EC50 ref. drugs UL97-F342S
Method: as §1, §2, §3

HCMV UL97-H411Y [5] = assay: as above; type: cell-based, human cytomegalovirus; conditions: Human betaherpesvirus 5, read-out: Measured EC50 ref. drugs UL97-H411Y
Method: as §1, §2, §3

HCMV UL97-H469V = assay: as above; type: cell-based, human cytomegalovirus; conditions: Human betaherpesvirus 5, read-out: Measured EC50 ref. drugs UL97-H469V
Method: as §1, §2, §3

HCMV UL97-H520Q [6] = assay: as above; type: cell-based, human cytomegalovirus; conditions: Human betaherpesvirus 5, read-out: Measured EC50 ref. drugs UL97-H520Q
Method: as §1, §2, §3

HCMV UL97-L397R = assay: as above; type: cell-based, human cytomegalovirus; conditions: Human betaherpesvirus 5, read-out: Measured EC50 ref. drugs UL97-L397R
Method: as §1, §2, §3

HCMV UL97-M460I [7] = assay: as above; type: cell-based, human cytomegalovirus; conditions: Human betaherpesvirus 5, AD169, read-out: Measured EC50 ref. drugs UL97-M460I
Method: as §1, §2, §3

HCMV UL97-T409M [8] = assay: as above; type: cell-based, human cytomegalovirus; conditions: Human betaherpesvirus 5, read-out: Measured EC50 ref. drugs UL97-T409M
Method: as §1, §2, §3

HCMV UL97-M460I [9] = system: HCMV UL97-M460I; parameters: method as in PMID 31940472; key: R-high, high-level drug resistance; R-int, intermediate-level drug resistance; R-low, low-level drug resistance; S, drug sensitivity; conditions: cited from earlier work
HCMV UL97-T409M [10] = system: HCMV UL97-T409M; parameters: method as in PMID 31940472; key: R-high, high-level drug resistance; R-int, intermediate-level drug resistance; R-low, low-level drug resistance; S, drug sensitivity; conditions: cited from earlier work
HCMV UL97-H411Y [11] = system: HCMV UL97-H411Y; parameters: method as in PMID 31940472; key: R-high, high-level drug resistance; R-int, intermediate-level drug resistance; R-low, low-level drug resistance; S, drug sensitivity; conditions: cited from earlier work
HCMV UL97-C480F [12] = system: HCMV UL97-C480F; parameters: method as in PMID 31940472; key: R-high, high-level drug resistance; R-int, intermediate-level drug resistance; R-low, low-level drug resistance; S, drug sensitivity; conditions: cited from earlier work
HCMV UL97-C592G [13] = system: HCMV UL97-C592G; parameters: method as in PMID 31940472; key: R-high, high-level drug resistance; R-int, intermediate-level drug resistance; R-low, low-level drug resistance; S, drug sensitivity; conditions: cited from earlier work
HCMV UL97-F342S [14] = system: HCMV UL97-F342S; parameters: method as in PMID 31940472; key: R-high, high-level drug resistance; R-int, intermediate-level drug resistance; R-low, low-level drug resistance; S, drug sensitivity; conditions: (for F342Y); cited from earlier work
HCMV UL97-H520Q [15] = system: HCMV UL97-H520Q; parameters: method as in PMID 31940472; key: R-high, high-level drug resistance; R-int, intermediate-level drug resistance; R-low, low-level drug resistance; S, drug sensitivity; conditions: cited from earlier work
HCMV UL97-C603W [16] = system: HCMV UL97-C603W; parameters: method as in PMID 31940472; key: R-high, high-level drug resistance; R-int, intermediate-level drug resistance; R-low, low-level drug resistance; S, drug sensitivity; conditions: cited from earlier work
[17] = Neutral Red uptake assay (NRA), uninfected HFFs; type: cell-based; conditions: human, read-out: CC50 (VZV-GFP system)
Method: The cytotoxic level of the compounds was determined by the use of an established quantitation of cell viability (i.e., Neutral Red uptake assay) performed after 3–7 d of compound incubation on uninfected cells (according to the respective duration of the antiviral reporter-based replication assay performed in parallel) as described earlier in [44].

VZV Oka-GFP = assay: microbe, parasite or virus in culture; type: cell-based, varicella zoster virus; conditions: for EC50: Human alphaherpesvirus 3, 96 h
From the text: (§4) The virus recombinants VZV Oka-GFP and rKSHV.219-GFP/RFP were used for the infection of HFFs (virus stock VZV Oka-GFP applied as a cell-bound inoculum as described before) or were continuously passaged in iSLK.219 carrier cells, respectively (Figure 1). The conditions of the GFP/RFP-based assays were adapted to both the 96 well (Figure 1A,B) and 12 well formats, and details including the assessment of antiviral reference drugs are given (Figure 1C,D).
(§5) The virus recombinants VZV Oka-GFP and rKSHV.219-GFP/RFP were used for the infection of HFFs (VZV) or were continuously passaged in iSLK.219 carrier cells (KSHV), respectively, and cell viability was determined by NRA performed with uninfected HFFs or uninduced iSLK.219 cells, respectively. (A,B) Schematic depiction of the assay systems performed in a 96 well plate format. […] For the VZV-GFP system, virus stock VZV Oka-GFP was applied as a cell-bound infectious inoculum. After a 90 min period of inoculum adsorption to the cell surfaces, antiviral compounds were added to the culture media at serial dilutions (DMSO served as a solvent control for drug treatment of infected cells, while mock-infected cells served as a negative control). For the KSHV-GFP/RFP system, iSLK.219 cell lytic replication of KSHV (RFP reporter signal) was induced by the addition of 0.05 or 0.5 µg/mL doxycycline (dox) to the culture media. Cultivated dox-induced iSLK.219 cells were treated with antiviral compounds added at serial dilutions (DMSO served as a positive infection solvent control, while dox-untreated mock cells served as a negative control). HFFs or iSLK.219 cells were harvested at 4 d p.i. or 1 d after treatment, respectively, fixed by a 10 min incubation with 10% formalin, washed with PBS, and used for quantitation of the GFP or RFP reporter signal by PicoMD counting (ImageXpress® Pico device, Molecular Devices LLC, San Jose, CA, USA), with data evaluation using CellReporterXpress® software (version 2.9.3.1183, Molecular Devices LLC) as described earlier in [63]. (C) The antiviral activity of the reference drugs was determined with the VZV-GFP system in the 96 well format. EC50 values refer to measurements in quadruplicate, and the mean values ± SD of two experimental replicates are given. (D) The antiviral activity of the reference drugs was determined with the KSHV-GFP/RFP system in the 96 well format. EC50 values refer to measurements in triplicate, and the mean values ± SD are given for each of the two depicted experimental replicates.

rKSHV.219-GFP/RFP = assay: KSHV-GFP/RFP reporter assay in iSLK.219 cells; type: cell-based, Kaposi’s sarcoma-associated herpesvirus
From the text: as §4, §5

[18] = Neutral Red uptake assay (NRA), iSLK.219 cells; type: cell-based; conditions: human, read-out: CC50 (KSHV-GFP/RFP system)
Method: as §5

CC(C)Nc1nc2cc(Cl)c(Cl)cc2n1[C@H]1O[C@@H](CO)[C@H](O)[C@@H]1O [MBV, maribavir]
EC50 (HCMV UL97-C480F [1]): > 30000 nM
EC50 (HCMV UL97-C592G [2]): 770 nM
EC50 (HCMV UL97-C603W [3]): 1530 nM
EC50 (HCMV UL97-F342S [4]): 20300 nM
EC50 (HCMV UL97-H411Y [5]): 21000 nM
EC50 (HCMV UL97-H469V): 620 nM
EC50 (HCMV UL97-H520Q [6]): 40 nM
EC50 (HCMV UL97-L397R): 63900 nM
EC50 (HCMV UL97-M460I [7]): 10 nM
EC50 (HCMV UL97-T409M [8]): > 30000 nM
Reported phenotype UL97-M460I (HCMV UL97-M460I [9]): R-low
Reported phenotype UL97-T409M (HCMV UL97-T409M [10]): R-high
Reported phenotype UL97-H411Y (HCMV UL97-H411Y [11]): R-high
Reported phenotype UL97-C480F (HCMV UL97-C480F [12]): R-high
Reported phenotype UL97-C592G (HCMV UL97-C592G [13]): S
Reported phenotype UL97-F342S (HCMV UL97-F342S [14]): R-int
Reported phenotype UL97-H520Q (HCMV UL97-H520Q [15]): S
Reported phenotype UL97-C603W (HCMV UL97-C603W [16]): R-int

Nc1nc2c(ncn2COCCO)c(=O)[nH]1 [aciclovir]
CC50 [17]: > 100000 nM

CCCCCCCCCCCCCCCCOCCCOP(=O)(O)CO[C@H](CO)Cn1ccc(N)nc1=O [brincidofovir]
CC50 [17]: > 10000 nM
SI (VZV-GFP system) (VZV Oka-GFP; 96 well format): > 143
EC50 (VZV Oka-GFP; read-out: VZV EC50 (first experimental replicate)): 70 ± 40 nM
EC50 (VZV Oka-GFP; read-out: VZV EC50 (second experimental replicate)): 60 ± 30 nM
SI (KSHV-GFP/RFP system) (rKSHV.219-GFP/RFP; 0.05 μg/mL dox): 126
SI (KSHV-GFP/RFP system) (rKSHV.219-GFP/RFP; 0.5 μg/mL dox): 43
EC50 (rKSHV.219-GFP/RFP; Human gammaherpesvirus 8, read-out: KSHV EC50, iSLK.219, 96 well, induced with 0.5 μg/mL dox): 700 nM
CC50 ([18]; marked 0.05 μg/mL dox): 23800 ± 2900 nM
CC50 ([18]; marked 0.5 μg/mL dox): 28200 nM
